The record followed here is patent US20250250302A1, “SYNTHESIS OF SELF-ASSEMBLING ARTIFICIAL PROTEINS UTILIZING A HOST-GUEST SYSTEM AND USES THEREOF” (Indian Institute of Science Education and Research, Pune …, priority 2024, published 2025).

This series is described as follows: solubility test of α, β, and γcyclodextrin in water. Conditions: compared with β cyclodextrin.

As for `OC[C@H]1O[C@@H]2O[C@H]3[C@H](O)[C@@H](O)[C@@H](O[C@H]4[C@H](O)[C@@H](O)[C@@H](O[C@H]5[C@H](O)[C@@H](O)[C@@H](O[C@H]6[C@H](O)[C@@H](O)[C@@H](O[C@H]7[C@H](O)[C@@H](O)[C@@H](O[C@H]1[C@H](O)[C@H]2O)O[C@@H]7CO)O[C@@H]6CO)O[C@@H]5CO)O[C@@H]4CO)O[C@@H]3CO` [a], the solubility in water result is “better solubility in water compared to β cyclodextrin”.
